{"source": "patent US20240156836A1", "about": "“METHODS OF TREATING TE[…]” (priority 2018, published 2024)", "key": {"[1]": {"assay": "Dose titration concordance analysis (C6 vs Cavg) in hypogonadal men treated with oral TU", "type": "in vivo", "excerpt": "One of the goals of this study was to determine whether the T concentration in blood samples collected into Plain tubes (yielding serum) can be used for making dose titration decisions. In previous studies, dose titration decisions were based on T concentrations in NaF-EDTA plasma.\nThe goal of dose-titration in men treated with oral TU is to bring the testosterone Cavg into the eugonadal range. Because titration decisions based on testosterone Cavg are not practical in real world clinical setting, single sample T concentrations can be used as surrogates of Cavg. Concordance analysis estimates how well dose titration based on two different measures (e.g., Cavg v. C6) work in guiding dose titration. […] However, to determine total concordance, effective off-diagonal titration also must be determined. Effective off-diagonal titration can be estimated for the following reasons. […] Second, the titration boundaries (425 to 970 ng/dL) fall within the eugonadal boundaries (300 to 1100 ng/dL), and the eugonadal range is wide (3.5 fold) compared to the largest dose increment (33%) or decrement (25%). This means that the dose increments/decrements employed can allow movement within the eugonadal range (e.g. increasing the dose of someone with a Cavg of 400 ng/dL will raise the Cavg to a maximum of 532 ng/dL [400×1.33]). Similarly, when titration decisions based on C6 are different from those based on Cavg, the outcome will often be a Cavg in the eugonadal range. For example, when a patient's C6 is less than 425 ng/dL (indicating a dose increase is required), but whose Cavg is 600 ng/dL (indicating no titration), the impact of titrating based on C6 is that the Cavg will increase but remain in the eugonadal range. The largest dose increase will result in a 33% increase in exposure which, in this case, will raise the Cavg to 798 ng/dL. Therefore, despite titration based on C6, this patient's Cavg is not likely to rise above the upper boundary of the eugonadal range. Thus, the titration decision based on C6 is effectively concordant with that based on Cavg, since both titration decisions will result in a patient with a Cavg in the eugonadal range. Selected cells in Table 3 indicate a patient's Cavg that would result in effective off-diagonal titration. Therefore, when comparing the effectiveness of dose-titration decisions based on C6 and Cavg, both concordance (on-diagonal agreement between C6 and Cavg) and effective off-diagonal agreement must be considered) [i.e., total concordance (percent of patients treated with oral TU who fall into given concordance boxes) is defined as the sum of on-diagonal and effective off-diagonal concordance (see area in Table 3 defined by heavy line). In the example presented, the C6 value is a serum value derived from a measured NaF-EDTA plasma value and a conversion factor that enables the conversion of NaF-EDTA plasma data to be converted to an equivalent serum data.\nThese reflect an on-diagonal concordance of 75% and 63% and an effective off-diagonal titration decision of 24% and 36% for Visit 2 and Visit 4b, respectively. Therefore, dose titration based on C6 can effectively adjust a patient's oral TU dose such that their Cavg is in the eugonadal range."}, "[2]": {"method": "Testosterone undecanoate is metabolized into testosterone. Its degradation in whole blood into testosterone has been studied in conditions typically used in clinical trials.\nPrior to discharge from the clinical facility, the subjects will be instructed to take 396 mg TU by mouth immediately prior to their dinner meal on Day 1, then twice daily on Days 2-6 immediately prior to their breakfast and dinner meals, and on Day 7 in the morning, immediately prior to their breakfast meal.\nSubjects will return to the Clinic on Day 7 in the late afternoon (before dinner) with their study medication. Upon arrival at the clinic, their study drug will be counted to determine compliance during Day 1 through Day 7 post-AM dose. They will then be administered the study drug 396 mg TU by mouth immediately prior to a dinner meal (containing 30 g fat) which will be provided. Subjects will be instructed to consume the dinner in approximately 20 minutes. Subjects will remain in the unit overnight.\nOn the 8th day, 5 hrs after their AM meal, blood is collected in plain, EDTA and NaF-EDTA tubes. The plain tubes sit at room temperature (RT). The EDTA and NaF-EDTA tubes are placed on ice.\nSamples will be collected into multiple Plain, EDTA and NaF-EDTA tubes. The Plain tube will be incubated at RT to allow blood clotting, as recommended by Clinical and Laboratory Standards Institute (CLSI 2010). […]"}}}
{"molecule": "CCCCCCCCCCC(=O)O[C@H]1CC[C@H]2[C@@H]3CCC4=CC(=O)CC[C@]4(C)[C@H]3CC[C@]12C", "note": "[TU, testosterone undecanoate]", "values": [{"measurement": "percent of patients", "setting": "[1]; Visit 2, C6 425-970 ng/dL, Cavg 350-800 ng/dL", "value": 15.2, "unit": "%"}, {"measurement": "percent of patients", "setting": "[1]; Visit 2, C6 425-970 ng/dL, Cavg <350 ng/dL", "value": 5.4, "unit": "%"}, {"measurement": "percent of patients", "setting": "[1]; Visit 2, C6 425-970 ng/dL, Cavg >800 ng/dL", "value": 2, "unit": "%"}, {"measurement": "percent of patients", "setting": "[1]; Visit 2, C6 425-970 ng/dL, Total", "value": 22.6, "unit": "%"}, {"measurement": "percent of patients", "setting": "[1]; Visit 2, C6 <425 ng/dL, Cavg 350-800 ng/dL", "value": 13.9, "unit": "%"}, {"measurement": "percent of patients", "setting": "[1]; Visit 2, C6 <425 ng/dL, Cavg <350 ng/dL", "value": 59.4, "unit": "%"}, {"measurement": "percent of patients", "setting": "[1]; Visit 2, C6 <425 ng/dL, Cavg >800 ng/dL", "value": 0, "unit": "%"}, {"measurement": "percent of patients", "setting": "[1]; Visit 2, C6 <425 ng/dL, Total", "value": 73.3, "unit": "%"}, {"measurement": "percent of patients", "setting": "[1]; Visit 2, C6 >970 ng/dL, Cavg 350-800 ng/dL", "value": 4.2, "unit": "%"}, {"measurement": "percent of patients", "setting": "[1]; Visit 2, C6 >970 ng/dL, Cavg <350 ng/dL", "value": 0, "unit": "%"}, {"measurement": "percent of patients", "setting": "[1]; Visit 2, C6 >970 ng/dL, Cavg >800 ng/dL", "value": 0.6, "unit": "%"}, {"measurement": "percent of patients", "setting": "[1]; Visit 2, C6 >970 ng/dL, Total", "value": 4.8, "unit": "%"}, {"measurement": "percent of patients", "setting": "[1]; Visit 2, Total, Cavg 350-800 ng/dL", "value": 33.3, "unit": "%"}, {"measurement": "percent of patients", "setting": "[1]; Visit 2, Total, Cavg <350 ng/dL", "value": 64.8, "unit": "%"}, {"measurement": "percent of patients", "setting": "[1]; Visit 2, Total, Cavg >800 ng/dL", "value": 2.6, "unit": "%"}, {"measurement": "percent of patients", "setting": "[1]; Visit 4b, C6 425-970 ng/dL, Cavg 350-800 ng/dL", "value": 25, "unit": "%"}, {"measurement": "percent of patients", "setting": "[1]; Visit 4b, C6 425-970 ng/dL, Cavg <350 ng/dL", "value": 10, "unit": "%"}, {"measurement": "percent of patients", "setting": "[1]; Visit 4b, C6 425-970 ng/dL, Cavg >800 ng/dL", "value": 0.6, "unit": "%"}, {"measurement": "percent of patients", "setting": "[1]; Visit 4b, C6 425-970 ng/dL, Total", "value": 35.6, "unit": "%"}, {"measurement": "percent of patients", "setting": "[1]; Visit 4b, C6 <425 ng/dL, Cavg 350-800 ng/dL", "value": 21.8, "unit": "%"}, {"measurement": "percent of patients", "setting": "[1]; Visit 4b, C6 <425 ng/dL, Cavg <350 ng/dL", "value": 37.5, "unit": "%"}, {"measurement": "percent of patients", "setting": "[1]; Visit 4b, C6 <425 ng/dL, Cavg >800 ng/dL", "value": 0, "unit": "%"}, {"measurement": "percent of patients", "setting": "[1]; Visit 4b, C6 <425 ng/dL, Total", "value": 59.3, "unit": "%"}, {"measurement": "percent of patients", "setting": "[1]; Visit 4b, C6 >970 ng/dL, Cavg 350-800 ng/dL", "value": 4.3, "unit": "%"}, {"measurement": "percent of patients", "setting": "[1]; Visit 4b, C6 >970 ng/dL, Cavg <350 ng/dL", "value": 0, "unit": "%"}, {"measurement": "percent of patients", "setting": "[1]; Visit 4b, C6 >970 ng/dL, Cavg >800 ng/dL", "value": 0.6, "unit": "%"}, {"measurement": "percent of patients", "setting": "[1]; Visit 4b, C6 >970 ng/dL, Total", "value": 4.9, "unit": "%"}, {"measurement": "percent of patients", "setting": "[1]; Visit 4b, Total, Cavg 350-800 ng/dL", "value": 51.1, "unit": "%"}, {"measurement": "percent of patients", "setting": "[1]; Visit 4b, Total, Cavg <350 ng/dL", "value": 47.5, "unit": "%"}, {"measurement": "percent of patients", "setting": "[1]; Visit 4b, Total, Cavg >800 ng/dL", "value": 1.2, "unit": "%"}, {"measurement": "testosterone exposure versus dose", "setting": "[1]; men treated with oral TU", "value": "dose proportional"}, {"measurement": "degradation of TU in whole blood into testosterone", "setting": "[2]", "value": "degrades extensively to testosterone"}]}
